According to PubChem BioAssay AID248 (DTP/NCI, 2004):
Inconclusive results and toxic doses are left out. Cut-off read from the data, not from the text of the source: active = T/C of 150% or more; inactive = T/C below 125%.

Test system: L1210 leukemia ip in BDF1 mice, survival T/C
Test: NCI In Vivo Anticancer Drug Screen. Data for tumor model L1210 Leukemia (intraperitoneal) in B6D2F1 (BDF1) mice
Settings: endpoint: mean survival time, higher = longer survival
Procedure, shortened: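 Transplanted-tumor mice were given test agent; controls received vehicle only. Survival readings from the two groups were divided (treated over control).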

[1] = dose: 10.0 mg/kg/injection, schedule: Q01DX001 (ip), vehicle: saline
[2] = dose: 50.0 mg/kg/injection, schedule: Q01DX009 (ip), vehicle: saline
[3] = dose: 100.0 mg/kg/injection, schedule: Q04DX003 (ip), vehicle: saline
[4] = dose: 200.0 mg/kg/injection, schedule: Q04DX003 (ip), vehicle: saline
[5] = dose: 400.0 mg/kg/injection, schedule: Q04DX003 (ip), vehicle: saline
[6] = dose: 5.0 mg/kg/injection, schedule: Q01DX001 (ip), vehicle: saline
[7] = dose: 20.0 mg/kg/injection, schedule: Q01DX001 (ip), vehicle: saline
[8] = dose: 40.0 mg/kg/injection, schedule: Q01DX001 (ip), vehicle: saline
[9] = dose: 100.0 mg/kg/injection, schedule: Q01DX001 (ip), vehicle: saline
[10] = dose: 100.0 mg/kg/injection, schedule: Q01DX009 (ip), vehicle: saline
[11] = dose: 200.0 mg/kg/injection, schedule: Q01DX001 (ip), vehicle: saline
[12] = dose: 200.0 mg/kg/injection, schedule: Q01DX009 (ip), vehicle: saline
[13] = dose: 400.0 mg/kg/injection, schedule: Q01DX009 (ip), vehicle: saline
[14] = dose: 100.0 mg/kg/injection, schedule: Q01DX009 (ip), vehicle: saline with Tween-80
[15] = dose: 100.0 mg/kg/injection, schedule: Q04DX003 (ip), vehicle: saline with Tween-80
[16] = dose: 200.0 mg/kg/injection, schedule: Q01DX009 (ip), vehicle: saline with Tween-80
[17] = dose: 200.0 mg/kg/injection, schedule: Q04DX003 (ip), vehicle: saline with Tween-80
[18] = dose: 400.0 mg/kg/injection, schedule: Q04DX003 (ip), vehicle: saline with Tween-80
[19] = dose: 400.0 mg/kg/injection, schedule: Q01DX001 (ip), vehicle: saline

Measured: T/C

O=NN(CC(Cl)CN(N=O)C(=O)NC1CCCCC1)C(=O)NC1CCCCC1
inactive: dose: 8.0 mg/kg/injection, schedule: Q01DX001 (ip), vehicle: other 97 % of control | dose: 16.0 mg/kg/injection, schedule: Q01DX001 (ip), vehicle: other 108 % of control | dose: 31.0 mg/kg/injection, schedule: Q01DX001 (ip), vehicle: other 90 % of control | dose: 62.0 mg/kg/injection, schedule: Q01DX001 (ip), vehicle: other 100 % of control | dose: 125.0 mg/kg/injection, schedule: Q01DX001 (ip), vehicle: other 95 % of control | dose: 250.0 mg/kg/injection, schedule: Q01DX001 (ip), vehicle: other 92 % of control | dose: 500.0 mg/kg/injection, schedule: Q01DX001 (ip), vehicle: other 97 % of control | dose: 750.0 mg/kg/injection, schedule: Q01DX001 (ip), vehicle: other 102 % of control | dose: 1000.0 mg/kg/injection, schedule: Q01DX001 (ip), vehicle: other 102 % of control

CC(=O)OC1CC(OC2C(O)CC(OC3C(O)CC(OC4CCC5(C)C(CCC6C5CCC5(C)C(C7=CC(=O)OC7)CCC65O)C4)OC3C)OC2C)OC(C)C1OC1OC(CO)C(O)C(O)C1O (configuration not stated)
inactive: [1] 101 % of control

Cc1ccc2c(c1)-c1[nH]c3ccccc3c1CS2
inactive: dose: 100.0 mg/kg/injection, schedule: Q04DX003 (ip), vehicle: acetone 105 % of control | dose: 200.0 mg/kg/injection, schedule: Q04DX003 (ip), vehicle: acetone 110 % of control

ClCCN(CCCl)c1ccc(CNCCCNCc2ccc(N(CCCl)CCCl)cc2)cc1
inactive: dose: 5.0 mg/kg/injection, schedule: Q01DX001 (ip), vehicle: carboxymethylcellulose (CMC) 105 % of control | dose: 10.0 mg/kg/injection, schedule: Q01DX001 (ip), vehicle: carboxymethylcellulose (CMC) 110 % of control | dose: 20.0 mg/kg/injection, schedule: Q01DX001 (ip), vehicle: carboxymethylcellulose (CMC) 103 % of control

C=C[C@@](C)(O)CC/C=C(/C)CCC=C(C)C
inactive: dose: 6.0 mg/kg/injection, schedule: Q01DX009 (ip), vehicle: saline 112 % of control | dose: 12.0 mg/kg/injection, schedule: Q01DX009 (ip), vehicle: saline 100 % of control | dose: 25.0 mg/kg/injection, schedule: Q01DX009 (ip), vehicle: saline 101 % of control | [2] 106 % of control | [3] 97 % of control | [4] 96 % of control | [5] 102 % of control

CCCC[P+](CCCC)(CCCC)Cc1ccccc1
inactive: [6] 100 % of control | [1] 119 % of control | dose: 12.5 mg/kg/injection, schedule: Q04DX003 (ip), vehicle: Klucel (hydroxypropylcellulose) (HPC) 104 % of control | [7] 98 % of control | dose: 25.0 mg/kg/injection, schedule: Q04DX003 (ip), vehicle: Klucel (hydroxypropylcellulose) (HPC) 104 % of control | [8] 96 % of control

Cc1ccc(S(=O)(=O)NC(CCC(=O)O)C(=O)O)cc1 (configuration not stated)
inactive: [9] 91 % of control | [10] 93 % of control | [3] 108 % of control | [11] 102 % of control | [12] 100 % of control | [4] 103 % of control | [13] 88 % of control | [5] 106 % of control

CCC[CH2][Sn]([CH2]CCC)([O]S(C)(=O)=O)[O]S(C)(=O)=O
inactive: dose: 1.56 mg/kg/injection, schedule: Q01DX009 (ip), vehicle: Klucel (hydroxypropylcellulose) (HPC) 105 % of control | dose: 3.12 mg/kg/injection, schedule: Q01DX009 (ip), vehicle: Klucel (hydroxypropylcellulose) (HPC) 105 % of control

O=C(O)CCC(=O)c1ccc2ccccc2c1
inactive: dose: 100.0 mg/kg/injection, schedule: Q04DX003 (ip), vehicle: Klucel (hydroxypropylcellulose) (HPC) 100 % of control | dose: 200.0 mg/kg/injection, schedule: Q04DX003 (ip), vehicle: Klucel (hydroxypropylcellulose) (HPC) 91 % of control | dose: 400.0 mg/kg/injection, schedule: Q04DX003 (ip), vehicle: Klucel (hydroxypropylcellulose) (HPC) 92 % of control

CCCC(=O)Oc1ccc2c(C)cc(=O)oc2c1
inactive: [14] 102 % of control | [15] 94 % of control | [16] 104 % of control | [17] 100 % of control | dose: 400.0 mg/kg/injection, schedule: Q01DX009 (ip), vehicle: saline with Tween-80 106 % of control | [18] 100 % of control

O=C(CSc1ncc2ccccn12)c1ccccc1
inactive: dose: 100.0 mg/kg/injection, schedule: Q04DX002 (ip), vehicle: saline with Tween-80 106 % of control | dose: 200.0 mg/kg/injection, schedule: Q04DX002 (ip), vehicle: saline with Tween-80 92 % of control | dose: 400.0 mg/kg/injection, schedule: Q04DX002 (ip), vehicle: saline with Tween-80 95 % of control

C=C1CC(=O)N(c2ccc(Cl)cc2)C1=O
inactive: dose: 25.0 mg/kg/injection, schedule: Q01DX001 (ip), vehicle: saline with Tween-80 93 % of control | dose: 50.0 mg/kg/injection, schedule: Q01DX001 (ip), vehicle: saline with Tween-80 98 % of control | dose: 100.0 mg/kg/injection, schedule: Q01DX001 (ip), vehicle: saline with Tween-80 97 % of control

C=C=C[P+](c1ccccc1)(c1ccccc1)c1ccccc1
inactive: [6] 104 % of control | [1] 98 % of control | [7] 101 % of control | [8] 124 % of control

O=S(=O)(O)c1ccc(Cl)cc1
inactive: [15] 96 % of control | [17] 104 % of control | [18] 106 % of control

CNC(C)(C)C
inactive: [15] 93 % of control | [17] 93 % of control | [18] 86 % of control

Cc1cccc(C2=N/C(=C\c3cccc4ccccc34)C(=O)O2)c1
inactive: dose: 50.0 mg/kg/injection, schedule: Q01DX009 (ip), vehicle: saline with Tween-80 102 % of control | [14] 91 % of control | [16] 91 % of control

O=S(=O)(O)c1cccnc1
inactive: dose: 19.63 mg/kg/injection, schedule: Q01DX Z (ip), vehicle: carboxymethylcellulose (CMC) 102 % of control | dose: 39.25 mg/kg/injection, schedule: Q01DX Z (ip), vehicle: carboxymethylcellulose (CMC) 93 % of control | dose: 78.5 mg/kg/injection, schedule: Q01DX Z (ip), vehicle: carboxymethylcellulose (CMC) 92 % of control | [9] 102 % of control | dose: 157.0 mg/kg/injection, schedule: Q01DX Z (ip), vehicle: carboxymethylcellulose (CMC) 91 % of control | [11] 98 % of control | [19] 98 % of control

CCOC(=O)c1ccc(Nc2nnc(-c3ccccc3Cl)s2)cc1
inactive: dose: 25.0 mg/kg/injection, schedule: Q04DX002 (ip), vehicle: gum acacia 98 % of control | dose: 100.0 mg/kg/injection, schedule: Q04DX002 (ip), vehicle: gum acacia 88 % of control | dose: 200.0 mg/kg/injection, schedule: Q04DX002 (ip), vehicle: gum acacia 102 % of control | dose: 400.0 mg/kg/injection, schedule: Q04DX002 (ip), vehicle: gum acacia 94 % of control

CC1CCCCN1C(CC(=O)c1ccccc1)C(=O)c1ccccc1 (configuration not stated)
inactive: dose: 50.0 mg/kg/injection, schedule: Q01DX001 (ip), vehicle: saline 97 % of control | [9] 95 % of control | [11] 101 % of control | [19] 101 % of control

CC(=O)Nc1ccc(N=C/C=C/c2ccccc2)cc1
inactive: [9] 93 % of control | [11] 94 % of control | [19] 98 % of control

O=c1ccc2cc3cc(I)c(O)c(I)c3oc-2c1I
inactive: dose: 100.0 mg/kg/injection, schedule: Q01DX009 (ip), vehicle: Klucel (hydroxypropylcellulose) (HPC) 101 % of control | dose: 200.0 mg/kg/injection, schedule: Q01DX009 (ip), vehicle: Klucel (hydroxypropylcellulose) (HPC) 99 % of control

COc1ccc(/C=N/NC(=O)c2ccccc2OC)cc1
inactive: [10] 108 % of control | [3] 108 % of control | dose: 130.0 mg/kg/injection, schedule: Q01DX009 (ip), vehicle: saline 104 % of control | [12] 92 % of control | [4] 102 % of control | dose: 300.0 mg/kg/injection, schedule: Q01DX009 (ip), vehicle: saline 92 % of control | [13] 114 % of control | [5] 102 % of control

O=C(c1ccccc1)c1ccco1
inactive: [2] 102 % of control | [10] 91 % of control | [12] 93 % of control
